# Values of other authors in PubChem BioAssay AID1259409 (Chemical Carcinogenesis Research Information System (CCRIS), 2018).
# Test system: rodent chemically induced tumor inhibition, incidence and multiplicity
# Assay: CCRIS tumor inhibitor studies
# Settings: Promoter: NONE USED
structure (smiles),measurement,setting,value
S=C=Nc1ccccc1,"tumour outcome (control, treated, inhibition, significance)","Carcinogen: 4-(METHYLNITROSAMINO)-1-(3-PYRIDYL)-1-BUTANONE, 64091-91-4, Dose [Inhibitor]: 0, 5 UMOL 1/D FOR 4 D ADMINISTERED PRIOR TO CARCINOGEN DOSE (STUDY DURATION: 116 D), Route [Inhibitor]: GAVAGE, Species: MOUSE, Strain/Sex: STRAIN-A, Target Tissue: Type of Lesion: LUNG: ADENOMA, Dose [Carcinogen]: 10 UMOL IN SALINE ADMINISTERED 2 HR POST LAST AGENT DOSE","100%, 100%, 0%"
same,"tumour outcome (control, treated, inhibition, significance)","Carcinogen: 4-(METHYLNITROSAMINO)-1-(3-PYRIDYL)-1-BUTANONE, 64091-91-4, Dose [Inhibitor]: 0, 5 UMOL 1/D FOR 4 D ADMINISTERED PRIOR TO CARCINOGEN TREATMENT (STUDY DURATION: 116 D), Route [Inhibitor]: GAVAGE, Species: MOUSE, Strain/Sex: STRAIN A, Target Tissue: Type of Lesion: LUNG: ADENOMA, Dose [Carcinogen]: 10 UMOL ONCE, 2 HR AFTER FINAL DOSE OF INHIBITOR","100%, 100%, 0%, not significant"
same,"tumour outcome (control, treated, inhibition, significance)","Carcinogen: 4-(METHYLNITROSAMINO)-1-(3-PYRIDYL)-1-BUTANONE, 64091-91-4, Dose [Inhibitor]: 0, 5 UMOL/D FOR 4 CONSECUTIVE DAYS (STUDY DURATION: 17 WK), Route [Inhibitor]: GAVAGE, Species: MOUSE, Strain/Sex: STRAIN-A/FEMALE, Target Tissue: Type of Lesion: LUNG: ADENOMA, Dose [Carcinogen]: 10 UMOL ONCE 2 HR POST LAST AGENT DOSE","100%, 100%, 0%, not significant"
same,"tumour outcome (control, treated, inhibition, significance)","Carcinogen: 4-(METHYLNITROSAMINO)-1-(3-PYRIDYL)-1-BUTANONE, 64091-91-4, Dose [Inhibitor]: 5 UMOL/D FOR 4 CONSECUTIVE DAYS (STUDY DURATION: 16 WK), Route [Inhibitor]: GAVAGE, Species: MOUSE, Strain/Sex: STRAIN-A/FEMALE, Target Tissue: Type of Lesion: LUNG: ADENOMA, Dose [Carcinogen]: 10 UMOL ONCE 2 HR POST LAST AGENT DOSE","30/30 (100%), 30/30 (100%), 0%"
same,"tumour outcome (control, treated, inhibition, significance)","Carcinogen: 4-(N-NITROSOMETHYLAMINO)-1-(3-PYRIDYL)-1-BUTANONE, 64091-91-4, Dose [Inhibitor]: 0, 5 UMOL/D FOR 4 CONSECUTIVE DAYS (STUDY DURATION: 16.5 WK), Route [Inhibitor]: GAVAGE, Species: MOUSE, Strain/Sex: STRAIN-A/FEMALE, Target Tissue: Type of Lesion: LUNG: ADENOMA, Dose [Carcinogen]: 10 UMOL ONCE 2 HR POST LAST AGENT DOSE","100%, 100%, 0%, not significant"
same,"tumour outcome (control, treated, inhibition, significance)","Carcinogen: 7,12-DIMETHYLBENZ[A]ANTHRACENE, 57-97-6, Dose [Inhibitor]: 23 MG ONCE 4 HR PRIOR TO CARCINOGEN DOSE (STUDY DURATION: 18 WK), Route [Inhibitor]: INTRAGASTRIC, Species: RAT, Strain/Sex: SPRAGUE-DAWLEY/FEMALE, Target Tissue: Type of Lesion: MAMMARY GLAND: TUMOR, Dose [Carcinogen]: 12 MG IN 1 ML OLIVE OIL AT AGE 7 WK","86%, 46%, 46%, p<0.05"
